# What was measured:
# [1] = molecular target: T1, HMG CoA Reductase (Rattus norvegicus, UniProt P51639); experiment: Prophylactic study: HMG CoA reductase activity in liver homogenate; assay type: in vivo, Wistar strain albino rats; settings: HFD+normal diet, after sacrifice
# T1 construct: The tissue homogenate was prepared by homogenizing 1 gm of tissue (liver) with 10 ml of saline arsenate solution; from tissue; host or cells: rat liver homogenate
# T1 sequence (P51639 1-887): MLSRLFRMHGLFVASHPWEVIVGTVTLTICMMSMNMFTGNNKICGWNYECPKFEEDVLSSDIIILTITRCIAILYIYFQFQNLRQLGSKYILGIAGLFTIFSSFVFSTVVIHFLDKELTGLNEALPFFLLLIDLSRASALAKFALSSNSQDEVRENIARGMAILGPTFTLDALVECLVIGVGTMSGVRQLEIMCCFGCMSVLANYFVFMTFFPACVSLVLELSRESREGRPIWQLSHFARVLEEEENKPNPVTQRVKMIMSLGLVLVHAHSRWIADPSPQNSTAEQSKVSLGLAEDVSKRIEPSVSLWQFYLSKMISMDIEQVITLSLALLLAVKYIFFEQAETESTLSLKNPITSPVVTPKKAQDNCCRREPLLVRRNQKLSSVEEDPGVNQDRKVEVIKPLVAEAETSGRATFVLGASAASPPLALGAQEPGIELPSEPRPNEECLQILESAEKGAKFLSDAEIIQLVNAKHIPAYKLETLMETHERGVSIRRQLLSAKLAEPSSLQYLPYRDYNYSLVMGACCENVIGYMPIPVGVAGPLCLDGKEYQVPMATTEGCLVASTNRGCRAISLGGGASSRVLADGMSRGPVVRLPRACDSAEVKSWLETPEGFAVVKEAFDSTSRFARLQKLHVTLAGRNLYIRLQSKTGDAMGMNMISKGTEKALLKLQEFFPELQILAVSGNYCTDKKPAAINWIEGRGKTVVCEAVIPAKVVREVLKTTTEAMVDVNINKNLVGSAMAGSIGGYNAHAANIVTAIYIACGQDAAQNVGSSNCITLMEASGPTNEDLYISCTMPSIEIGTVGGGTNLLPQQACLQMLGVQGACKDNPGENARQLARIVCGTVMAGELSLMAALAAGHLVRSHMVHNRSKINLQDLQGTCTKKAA
# Procedure: (§1) 1.5-2 ml blood sample was taken from retino-orbital chamber in vials for biochemical estimations at every 15 days. Investigations performed included detailed Total Cholesterol—TC (mg/dl), Triglyceride—TG (mg/dl), High Density Lipoprotein—HDL-C (mg/dl), Low Density Lipoprotein—LDL-C (mg/dl), Very Low-Density Lipoprotein—VLDL (mg/dl), WBC (10^3/u1), RBC (10^6/u1), Hb (g/dl), PCV (%), Reticulocyte (%), Platelet count 10^5/mm^3, Clotting time (Sec), Neutrophils, Lymphocyte, Monocyte and Eosinophil. The estimations were done with Ecoline kits from Erba Mannheim, ERBA diagnostics Mannheml, Germany using Semi Autoanalyzer RX50 of MicroLabs Instruments and COUNCELL21 of Tulip Diagnostics Pvt. Ltd. Lipid peroxidation (Plasma & Liver), HMG Co-Reductase, Creatine phosphokinase (CPK), Lactate dehydrogenase (LDH), SGOT and SGPT were estimated at the end of both the studies using the kits.
# The tissue homogenate was prepared by homogenizing 1 gm of tissue (liver) with 10 ml of saline arsenate solution. Further equal volumes of the fresh 10% tissue homogenate and diluted perchloric acid were mixed and allowed to stand for 5 minute and centrifuge (2000 rpm, 10 minutes). […] The readings were taken after 10 minutes at 540 nm vs. a similarly treated saline/arsenate blank.
# [2] = Prophylactic study: hematological parameters; assay type: in vivo, Wistar strain albino rats; settings: HFD+normal diet; for Lymphocyte / Neutrophils: in % (unit assumed)
# Procedure: Wistar strain albino rats of body weight ranging from 190-225 g were selected for the present study. The temperature and humidity were kept at optimum (22+2° C.; 40-70% and animals were exposed to natural chronological day night cycles. The experiments were carried out in conformity with the Institutional Animal Ethics Committee.
# The 6 groups were as follows: • 1. Normal Control • 2.
# as §1
smiles,measurement,setting,value
"CC(C)c1c(C(=O)Nc2ccccc2)c(-c2ccccc2)c(-c2ccc(F)cc2)n1CC[C@@H](O)C[C@@H](O)CC(=O)O [Statin, Atorvastatin]",HMG Co Reductase,[1],163.92 ± 4.02 U/mg
same,Clotting time,[2]; day 0,109.0 ± 1.10 s
same,Eosinophil,[2]; day 0,1.1%
same,Hb,[2]; day 0,11.95 ± 1.10 g/dL
same,Monocyte,[2]; day 0,1.4%
same,PCV,[2]; day 0,42.50 ± 1.80%
same,RBC,[2]; day 0,7.20 ± 0.20 10^6/μl
same,Reticulocyte,[2]; day 0,1.15 ± 0.05%
same,WBC,[2]; day 0,8.90 ± 0.55 10^3/μl
same,Lymphocyte,[2]; day 0,71.5
same,Neutrophils,[2]; day 0,26
same,Clotting time,[2]; day 15,107.45 ± 0.77 s
same,Eosinophil,[2]; day 15,1.3%
same,Monocyte,[2]; day 15,1.4%
same,PCV,[2]; day 15,35.85 ± 1.11%
same,Platelet count,[2]; day 15,905 ± 21.2 10³/µL
same,RBC,[2]; day 15,7.20 ± 0.81 10^6/μl
same,Reticulocyte,[2]; day 15,1.10 ± 0.11%
same,WBC,[2]; day 15,9.79 ± 0.57 10^3/μl
same,Lymphocyte,[2]; day 15,72.7
same,Neutrophils,[2]; day 15,24.6
same,Clotting time,[2]; day 30,110.0 ± 1.0 s
same,Eosinophil,[2]; day 30,1.15%
same,Monocyte,[2]; day 30,1.6%
same,Platelet count,[2]; day 30,1060 ± 23.3 10³/µL
same,RBC,[2]; day 30,7.20 ± 0.20 10^6/μl
same,Reticulocyte,[2]; day 30,1.08 ± 0.10%
same,WBC,[2]; day 30,9.03 ± 0.3 10^3/μl
same,Lymphocyte,[2]; day 30,71.25
same,Neutrophils,[2]; day 30,26
same,Clotting time,[2]; day 45,114.0 ± 1.00 s
same,Eosinophil,[2]; day 45,1.15%
same,Hb,[2]; day 45,12.00 ± 1.20 g/dL
same,Monocyte,[2]; day 45,1.4%
same,PCV,[2]; day 45,42.10 ± 1.30%
same,RBC,[2]; day 45,7.05 ± 0.21 10^6/μl
same,Reticulocyte,[2]; day 45,1.25 ± 0.06%
same,WBC,[2]; day 45,9.00 ± 0.50 10^3/μl
same,Lymphocyte,[2]; day 45,71.45
same,Neutrophils,[2]; day 45,26
same,Clotting time,[2]; day 60,112.0 ± 1.05 s
same,Hb,[2]; day 60,12.20 ± 1.12 g/dL
same,PCV,[2]; day 60,43.10 ± 1.30%
same,RBC,[2]; day 60,7.06 ± 0.31 10^6/μl
same,Reticulocyte,[2]; day 60,1.35 ± 0.06%
same,WBC,[2]; day 60,8.00 ± 0.60 10^3/μl
same,Lymphocyte,[2]; day 60,71.45
same,Neutrophils,[2]; day 60,26
same,Clotting time,[2]; day 75,110.81 ± 5.86 s
same,Eosinophil,[2]; day 75,1.22%
same,Hb,[2]; day 75,12.82 ± 0.25 g/dL
same,Platelet count,[2]; day 75,1070 ± 22.9 10³/µL
same,RBC,[2]; day 75,7.36 ± 0.21 10^6/μl
same,Reticulocyte,[2]; day 75,1.70 ± 0.05%
same,WBC,[2]; day 75,8.71 ± 0.23 10^3/μl
same,Lymphocyte,[2]; day 75,71.12
same,Neutrophils,[2]; day 75,26.28
same,Clotting time,[2]; day 90,111.00 ± 5.57 s
same,Eosinophil,[2]; day 90,1.35%
same,Hb,[2]; day 90,12.78 ± 0.28 g/dL
same,Platelet count,[2]; day 90,1070 ± 22.9 10³/µL
same,RBC,[2]; day 90,7.37 ± 0.20 10^6/μl
same,Reticulocyte,[2]; day 90,1.73 ± 0.02%
same,WBC,[2]; day 90,8.76 ± 0.19 10^3/μl
same,Lymphocyte,[2]; day 90,70.82
same,Neutrophils,[2]; day 90,26.37

# — patent publication US20230270804A1, “ANTI-HYPERCHOLESTEROLEMIA COMPOSITION AND A METHOD OF MANUFACTURING THE SAME” (NBI BIOSCIENCES PRIVATE LIMITED, priority 2020, published 2023)
